Converted amounts (≈) assume the structure as drawn.
Experiments:
[1] = system: Staph. albus SS 03; type: cell-based; details: Brain Heart Infusion, estolate and RV11-RV15 previously hydrolized, unit assumed
[2] = system: Staph. albus SS 04; type: cell-based; details: Brain Heart Infusion, estolate and RV11-RV15 previously hydrolized, unit assumed
[3] = system: Staph. aureus SS 07; type: cell-based; details: Brain Heart Infusion, estolate and RV11-RV15 previously hydrolized, unit assumed
[4] = system: Staph. aureus SS 08; type: cell-based; details: Brain Heart Infusion, estolate and RV11-RV15 previously hydrolized, unit assumed
[5] = system: Staph. aureus SS 09; type: cell-based; details: Brain Heart Infusion, estolate and RV11-RV15 previously hydrolized, unit assumed
[6] = system: Staph. aureus SS 10; type: cell-based; details: Brain Heart Infusion, estolate and RV11-RV15 previously hydrolized, unit assumed
[7] = system: Strept. haemolyticus SS 17; type: cell-based; details: Brain Heart Infusion, estolate and RV11-RV15 previously hydrolized, unit assumed
[8] = system: Strept. haemolyticus SS 18; type: cell-based; details: Brain Heart Infusion, estolate and RV11-RV15 previously hydrolized, unit assumed
[9] = system: Strept. faecalis SS 19; type: cell-based; details: Brain Heart Infusion, estolate and RV11-RV15 previously hydrolized, unit assumed
[10] = system: B. subtilis ATCC 6633; type: cell-based; details: Brain Heart Infusion, estolate and RV11-RV15 previously hydrolized, unit assumed
[11] = system: B. subtilis SS 127; type: cell-based; details: Brain Heart Infusion, estolate and RV11-RV15 previously hydrolized, unit assumed
[12] = system: B. anthranis SS 08; type: cell-based; details: Brain Heart Infusion, estolate and RV11-RV15 previously hydrolized, unit assumed
[13] = system: Br. melitensis SS 19; type: cell-based; details: unit assumed
[14] = system: Br. abortus SS 7; type: cell-based; details: Brain Heart Infusion, estolate and RV11-RV15 previously hydrolized, unit assumed
[15] = system: Citrobacter SS 05; type: cell-based; details: Brain Heart Infusion, estolate and RV11-RV15 previously hydrolized, unit assumed
[16] = system: Citrobacter SS 09; type: cell-based; details: Brain Heart Infusion, estolate and RV11-RV15 previously hydrolized, unit assumed
[17] = system: S. infantis SS 08; type: cell-based; details: Brain Heart Infusion, estolate and RV11-RV15 previously hydrolized, unit assumed
[18] = system: S. heidelberg SS 18; type: cell-based; details: Brain Heart Infusion, estolate and RV11-RV15 previously hydrolized, unit assumed
[19] = system: E. aerogenes SS 011; type: cell-based; details: Brain Heart Infusion, estolate and RV11-RV15 previously hydrolized, unit assumed
[20] = system: Ps. aeruginosa SS 10; type: cell-based; details: Brain Heart Infusion, estolate and RV11-RV15 previously hydrolized, unit assumed
[21] = system: E. coli SS 04; type: cell-based; details: Brain Heart Infusion, estolate and RV11-RV15 previously hydrolized, unit assumed
[22] = system: E. coli SS 05; type: cell-based; details: Brain Heart Infusion, estolate and RV11-RV15 previously hydrolized, unit assumed
[23] = system: E. coli SS 06; type: cell-based; details: Brain Heart Infusion, estolate and RV11-RV15 previously hydrolized, unit assumed
[24] = system: E. coli SS 07; type: cell-based; details: Brain Heart Infusion, estolate and RV11-RV15 previously hydrolized, unit assumed
[25] = system: Pr. mirabilis SS 09; type: cell-based; details: Brain Heart Infusion, estolate and RV11-RV15 previously hydrolized, unit assumed
[26] = system: Pr. vulgaris SS 10; type: cell-based; details: Brain Heart Infusion, estolate and RV11-RV15 previously hydrolized, unit assumed
[27] = system: Kl. aerogenes SS 71; type: cell-based; details: Brain Heart Infusion, estolate and RV11-RV15 previously hydrolized, unit assumed
[28] = system: H. tubercolosis SS 03; type: cell-based; details: Brain Heart Infusion, estolate and RV11-RV15 previously hydrolized, unit assumed
From the text: (§1) In the following table I the MIC/ml values are indicated corresponding to the lowest concentration capable of inducing a complete inhibition of the bacterial development.

[29] = system: Kl. pneumoniae SS 04; type: cell-based; details: Brain Heart Infusion, estolate and RV11-RV15 previously hydrolized, unit assumed
From the text: as §1

[30] = system: Sr. marcescens SS 03; type: cell-based; details: Brain Heart Infusion, estolate and RV11-RV15 previously hydrolized, unit assumed
[31] = system: C. diphtheriae SS 19; type: cell-based; details: Brain Heart Infusion, estolate and RV11-RV15 previously hydrolized, unit assumed
[32] = system: D. pneumoniae SS 23; type: cell-based; details: Brain Heart Infusion, estolate and RV11-RV15 previously hydrolized, unit assumed
[33] = system: N. gonorreae SS 27; type: cell-based; details: Brain Heart Infusion, estolate and RV11-RV15 previously hydrolized, unit assumed
[34] = system: N. meningitidis SS 04; type: cell-based; details: Brain Heart Infusion, estolate and RV11-RV15 previously hydrolized, unit assumed
[35] = system: H. influentiae SS 02; type: cell-based; details: Brain Heart Infusion, estolate and RV11-RV15 previously hydrolized, unit assumed
[36] = system: H. pertussis SS 03; type: cell-based; details: Brain Heart Infusion, estolate and RV11-RV15 previously hydrolized, unit assumed
[37] = system: C. albicans SS 04; type: cell-based; details: Brain Heart Infusion, estolate and RV11-RV15 previously hydrolized, unit assumed
[38] = system: Cl. tetani SS 17; type: cell-based; details: Brain Heart Infusion, estolate and RV11-RV15 previously hydrolized, unit assumed
[39] = system: B. anthranis SS 09; type: cell-based; details: B. anthranis SS 09 (14 bis); Brain Heart Infusion; estolate and RV11-RV15 previously hydrolized; unit assumed
[40] = Acute toxicity; type: in vivo; details: mouse, in vivo, po
Protocol: The acute toxicity was assessed in Swiss white mice by oral and intravenous route. The LD50 values have been calculated by the methods of Probits, starting from the mortality recorded 10 days after the treatment.

[41] = system: Staph. aureus SS 07; assay: Experimental infection induced by Staph. aureus SS 07; type: in vivo, Swiss white mice; details: os; Staph. aureus SS 07; mg/kg of erythromycin; survival after 7 days; 10080 min
Outline: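 Swiss mice of 20 g infected parenterally with lethal amounts of Staph. aureus SS 07 or D. pneumoniae SS 23. Antibiotics were given at infection and again 6 and 24 h later. ED50 was derived from survival at 7 days.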

[42] = Mucolytic activity: obstruction of the bronchial tract after SO2 inhalation; type: in vivo, Sprague Dawley male rats; details: oral, 500 mg/kg; SO2, 15 days
[43] = Histological examination of bronchi after SO2 inhalation; type: in vivo, Sprague Dawley male rats; details: oral, 500 mg/kg; for histological appearance of non obstructed bronchi: free non obstructed

## CCC(=O)O[C@H]1[C@H](O[C@@H]2[C@@H](C)[C@H](O[C@H]3C[C@@](C)(OC)[C@@H](O)[C@H](C)O3)[C@@H](C)C(=O)O[C@H](CC)[C@@](C)(O)[C@H](O)[C@@H](C)C(=O)[C@H](C)C[C@@]2(C)O)O[C@H](C)C[C@@H]1N(C)C [RV15, erythromycin monopropionate N-acetylcysteinate]
[1]
  MIC: 0.25 µg/mL (≈ 0.316 µM)
[2]
  MIC: 0.05 µg/mL (≈ 0.0633 µM)
[3]
  MIC: 0.025 µg/mL (≈ 0.0316 µM)
[4]
  MIC: 0.025 µg/mL (≈ 0.0316 µM)
[5]
  MIC: 0.05 µg/mL (≈ 0.0633 µM)
[6]
  MIC: 0.05 µg/mL (≈ 0.0633 µM)
[7]
  MIC: 1.5 µg/mL (≈ 1.9 µM)
[8]
  MIC: 3 µg/mL (≈ 3.8 µM)
[9]
  MIC: 0.05 µg/mL (≈ 0.0633 µM)
[10]
  MIC: 0.01 µg/mL (≈ 0.0127 µM)
[11]
  MIC: 0.025 µg/mL (≈ 0.0316 µM)
[12]
  MIC: 0.4 µg/mL (≈ 0.506 µM)
[13]
  MIC: 3 µg/mL (≈ 3.8 µM)
[14]
  MIC: 6 µg/mL (≈ 7.59 µM)
[15]
  MIC: > 200 µg/mL
[16]
  MIC: > 200 µg/mL
[17]
  MIC: 100 µg/mL (≈ 127 µM)
[18]
  MIC: 100 µg/mL (≈ 127 µM)
[19]
  MIC: 50 µg/mL (≈ 63.3 µM)
[20]
  MIC: 100 µg/mL (≈ 127 µM)
[21]
  MIC: 50 µg/mL (≈ 63.3 µM)
[22]
  MIC: 100 µg/mL (≈ 127 µM)
[23]
  MIC: 25 µg/mL (≈ 31.6 µM)
[24]
  MIC: 50 µg/mL (≈ 63.3 µM)
[25]
  MIC: > 200 µg/mL
[26]
  MIC: > 200 µg/mL
[27]
  MIC: 100 µg/mL (≈ 127 µM)
[28]
  MIC: 50 µg/mL (≈ 63.3 µM)
[29]
  MIC: 100 µg/mL (≈ 127 µM)
[30]
  MIC: 200 µg/mL (≈ 253 µM)
[31]
  MIC: 0.02 µg/mL (≈ 0.0253 µM)
[32]
  MIC: 0.05 µg/mL (≈ 0.0633 µM)
[33]
  MIC: 0.8 µg/mL (≈ 1.01 µM)
[34]
  MIC: 0.8 µg/mL (≈ 1.01 µM)
[35]
  MIC: 1.5 µg/mL (≈ 1.9 µM)
[36]
  MIC: 0.2 µg/mL (≈ 0.253 µM)
[37]
  MIC: 200 µg/mL (≈ 253 µM)
[38]
  MIC: 0.2 µg/mL (≈ 0.253 µM)
[39]
  MIC: 0.4 µg/mL (≈ 0.506 µM)
[40]; 14400 min
  LD50 (reliability limits): 3000 mg·kg
[41]
  ED50 (reliability limits): 2.10 (2.49-1.92) mg/kg
[42]
  Partial obstruction (% incidence): 6.66%
  Total obstruction, compact plug (% incidence): 20%
  Total obstruction, nodular mass (% incidence): 13.33%
  Total obstruction, pimply mass (% incidence): 6.66%
[43]
  histological appearance of non obstructed bronchi: presence of bronchi having almost normal appearance
  histological appearance of obstructed bronchial tract: fully like that of the control animals

## CCC(=O)O[C@H]1[C@H](O[C@@H]2[C@@H](C)[C@H](O[C@H]3C[C@@](C)(OC)[C@@H](O)[C@H](C)O3)[C@@H](C)C(=O)O[C@H](CC)[C@@](C)(O)[C@H](O)[C@@H](C)C(=O)[C@H](C)C[C@@]2(C)O)O[C@H](C)C[C@@H]1N(C)C [RV11, erythromycin-monopropionate-alpha-mercaptosuccinate]
[1]
  MIC: 0.05 µg/mL (≈ 0.0633 µM)
[2]
  MIC: 0.05 µg/mL (≈ 0.0633 µM)
[3]
  MIC: 0.05 µg/mL (≈ 0.0633 µM)
[4]
  MIC: 0.025 µg/mL (≈ 0.0316 µM)
[5]
  MIC: 0.1 µg/mL (≈ 0.127 µM)
[6]
  MIC: 0.025 µg/mL (≈ 0.0316 µM)
[7]
  MIC: 1.5 µg/mL (≈ 1.9 µM)
[8]
  MIC: 1.5 µg/mL (≈ 1.9 µM)
[9]
  MIC: 0.05 µg/mL (≈ 0.0633 µM)
[10]
  MIC: 0.025 µg/mL (≈ 0.0316 µM)
[11]
  MIC: 0.05 µg/mL (≈ 0.0633 µM)
[12]
  MIC: 0.8 µg/mL (≈ 1.01 µM)
[13]
  MIC: 3 µg/mL (≈ 3.8 µM)
[14]
  MIC: 6 µg/mL (≈ 7.59 µM)
[15]
  MIC: > 200 µg/mL
[16]
  MIC: > 200 µg/mL
[17]
  MIC: 100 µg/mL (≈ 127 µM)
[18]
  MIC: 100 µg/mL (≈ 127 µM)
[19]
  MIC: 100 µg/mL (≈ 127 µM)
[20]
  MIC: 100 µg/mL (≈ 127 µM)
[21]
  MIC: 50 µg/mL (≈ 63.3 µM)
[22]
  MIC: 100 µg/mL (≈ 127 µM)
[23]
  MIC: 50 µg/mL (≈ 63.3 µM)
[24]
  MIC: 50 µg/mL (≈ 63.3 µM)
[25]
  MIC: > 200 µg/mL
[26]
  MIC: > 200 µg/mL
[27]
  MIC: 100 µg/mL (≈ 127 µM)
[28]
  MIC: 50 µg/mL (≈ 63.3 µM)
[29]
  MIC: 200 µg/mL (≈ 253 µM)
[30]
  MIC: 200 µg/mL (≈ 253 µM)
[31]
  MIC: 0.01 µg/mL (≈ 0.0127 µM)
[32]
  MIC: 0.025 µg/mL (≈ 0.0316 µM)
[33]
  MIC: 0.4 µg/mL (≈ 0.506 µM)
[34]
  MIC: 1.5 µg/mL (≈ 1.9 µM)
[35]
  MIC: 0.8 µg/mL (≈ 1.01 µM)
[36]
  MIC: 0.4 µg/mL (≈ 0.506 µM)
[37]
  MIC: 200 µg/mL (≈ 253 µM)
[38]
  MIC: 0.2 µg/mL (≈ 0.253 µM)
[39]
  MIC: 0.4 µg/mL (≈ 0.506 µM)
[40]; os, mortality 10 days after treatment, mice, read-out: LD50 (reliability limits)
  LD50 at 240 h: 3000 mg/kg
[41]
  ED50 (reliability limits): 2.14 (2.40-1.91) mg/kg
[42]
  Partial obstruction (% incidence): 13.33%
  Total obstruction, compact plug (% incidence): 20%
  Total obstruction, nodular mass (% incidence): 6.66%
  Total obstruction, pimply mass (% incidence): 6.66%
[43]
  histological appearance of non obstructed bronchi: presence of bronchi having almost normal appearance
  histological appearance of obstructed bronchial tract: fully like that of the control animals
